A word on the pIC50: it is the negative decadic logarithm of the IC50, by convention in mol/L. Usually pKi stands for the Ki on a negative log10 scale, so that one unit is a factor of ten. A lower pKi goes with a large Ki.

Consider five compounds from ChEMBL document CHEMBL1135424, “Beta-aryl-succinic acid hydroxamates as dual inhibitors of matrix metalloproteinases and tumor necrosis factor alpha converting enzyme” (J Med Chem, 2002).

pIC50, pKi: −log10 of the molar value.

The target of one test is Tumor necrosis factor (Homo sapiens, UniProt P01375). Nature of the test: Inhibitory activity against tumor necrosis factor alpha (TNF-alpha) production in LPS-stimulated human PBMCs. Format: functional.
Tumor necrosis factor, sequence (P01375 whole entry, the tested form may be a part): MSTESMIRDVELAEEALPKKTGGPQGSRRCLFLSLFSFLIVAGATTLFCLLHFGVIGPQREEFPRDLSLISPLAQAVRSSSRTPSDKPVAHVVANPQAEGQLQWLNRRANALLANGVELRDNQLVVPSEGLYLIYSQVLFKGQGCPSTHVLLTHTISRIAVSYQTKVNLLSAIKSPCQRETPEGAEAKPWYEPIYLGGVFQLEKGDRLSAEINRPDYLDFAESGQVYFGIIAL
Test [1] addresses Disintegrin and metalloproteinase domain-containing protein 17 (Homo sapiens, UniProt P78536). Briefly: Inhibitory potency against Tumor necrosis factor alpha converting enzyme (TACE).
Test [2] concerns the target 72 kDa type IV collagenase (Homo sapiens, UniProt P08253). Nature of the test: Inhibitory potency against Matrix metalloprotease-2 (MMP-2).
A further test has as its target Stromelysin-1 (Homo sapiens, UniProt P08254). Briefly: Inhibitory potency against Matrix metalloprotease-3 (MMP-3).
A further test concerns the target T1, Interstitial collagenase (Homo sapiens, UniProt P03956).
T1 sequence (P03956 whole entry): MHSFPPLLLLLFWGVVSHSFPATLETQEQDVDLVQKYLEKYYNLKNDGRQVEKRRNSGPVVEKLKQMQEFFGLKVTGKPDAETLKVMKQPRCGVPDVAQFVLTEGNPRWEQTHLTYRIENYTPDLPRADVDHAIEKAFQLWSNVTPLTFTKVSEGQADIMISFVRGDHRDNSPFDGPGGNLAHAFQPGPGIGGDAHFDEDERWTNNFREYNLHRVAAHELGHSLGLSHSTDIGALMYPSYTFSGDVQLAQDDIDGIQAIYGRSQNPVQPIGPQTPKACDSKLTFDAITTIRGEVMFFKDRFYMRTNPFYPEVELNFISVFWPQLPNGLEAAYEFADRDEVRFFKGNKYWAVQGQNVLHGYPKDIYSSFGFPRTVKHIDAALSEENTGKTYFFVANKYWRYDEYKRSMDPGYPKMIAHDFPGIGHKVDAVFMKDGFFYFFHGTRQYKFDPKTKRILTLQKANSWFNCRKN
Nature of the test: Inhibitory potency against Matrix metalloprotease-1 (MMP-1).

72 kDa type IV collagenase, sequence (P08253 whole entry): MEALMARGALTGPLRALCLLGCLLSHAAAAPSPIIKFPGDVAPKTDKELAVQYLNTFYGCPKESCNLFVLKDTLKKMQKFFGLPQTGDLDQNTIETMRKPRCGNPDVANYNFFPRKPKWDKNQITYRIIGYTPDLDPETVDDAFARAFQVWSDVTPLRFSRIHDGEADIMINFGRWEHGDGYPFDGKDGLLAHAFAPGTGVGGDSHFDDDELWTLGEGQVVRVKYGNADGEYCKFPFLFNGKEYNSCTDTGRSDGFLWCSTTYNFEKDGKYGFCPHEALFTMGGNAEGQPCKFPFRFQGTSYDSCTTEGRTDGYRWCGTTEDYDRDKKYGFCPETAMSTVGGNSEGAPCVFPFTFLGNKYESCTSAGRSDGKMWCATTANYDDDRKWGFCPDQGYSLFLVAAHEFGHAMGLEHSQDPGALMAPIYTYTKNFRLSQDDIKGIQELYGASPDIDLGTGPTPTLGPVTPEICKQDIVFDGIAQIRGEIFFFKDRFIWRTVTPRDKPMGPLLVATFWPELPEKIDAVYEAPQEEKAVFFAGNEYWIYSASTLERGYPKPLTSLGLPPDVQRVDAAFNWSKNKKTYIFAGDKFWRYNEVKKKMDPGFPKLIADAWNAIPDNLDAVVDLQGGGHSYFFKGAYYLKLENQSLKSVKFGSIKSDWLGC
Stromelysin-1, sequence (P08254 whole entry): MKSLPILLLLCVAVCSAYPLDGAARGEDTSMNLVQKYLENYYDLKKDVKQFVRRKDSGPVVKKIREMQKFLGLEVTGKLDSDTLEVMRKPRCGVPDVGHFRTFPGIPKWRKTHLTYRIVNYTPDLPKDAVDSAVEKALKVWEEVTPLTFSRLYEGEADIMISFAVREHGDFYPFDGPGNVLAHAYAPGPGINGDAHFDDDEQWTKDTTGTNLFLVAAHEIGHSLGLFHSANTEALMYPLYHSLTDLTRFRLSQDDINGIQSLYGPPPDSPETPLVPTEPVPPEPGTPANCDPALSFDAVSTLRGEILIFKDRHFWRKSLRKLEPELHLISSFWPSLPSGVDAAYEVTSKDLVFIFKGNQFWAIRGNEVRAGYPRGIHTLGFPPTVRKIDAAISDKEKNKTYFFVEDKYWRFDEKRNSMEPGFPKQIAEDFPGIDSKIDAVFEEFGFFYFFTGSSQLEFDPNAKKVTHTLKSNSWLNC
Disintegrin and metalloproteinase domain-containing protein 17, sequence (P78536 whole entry, the tested form may be a part): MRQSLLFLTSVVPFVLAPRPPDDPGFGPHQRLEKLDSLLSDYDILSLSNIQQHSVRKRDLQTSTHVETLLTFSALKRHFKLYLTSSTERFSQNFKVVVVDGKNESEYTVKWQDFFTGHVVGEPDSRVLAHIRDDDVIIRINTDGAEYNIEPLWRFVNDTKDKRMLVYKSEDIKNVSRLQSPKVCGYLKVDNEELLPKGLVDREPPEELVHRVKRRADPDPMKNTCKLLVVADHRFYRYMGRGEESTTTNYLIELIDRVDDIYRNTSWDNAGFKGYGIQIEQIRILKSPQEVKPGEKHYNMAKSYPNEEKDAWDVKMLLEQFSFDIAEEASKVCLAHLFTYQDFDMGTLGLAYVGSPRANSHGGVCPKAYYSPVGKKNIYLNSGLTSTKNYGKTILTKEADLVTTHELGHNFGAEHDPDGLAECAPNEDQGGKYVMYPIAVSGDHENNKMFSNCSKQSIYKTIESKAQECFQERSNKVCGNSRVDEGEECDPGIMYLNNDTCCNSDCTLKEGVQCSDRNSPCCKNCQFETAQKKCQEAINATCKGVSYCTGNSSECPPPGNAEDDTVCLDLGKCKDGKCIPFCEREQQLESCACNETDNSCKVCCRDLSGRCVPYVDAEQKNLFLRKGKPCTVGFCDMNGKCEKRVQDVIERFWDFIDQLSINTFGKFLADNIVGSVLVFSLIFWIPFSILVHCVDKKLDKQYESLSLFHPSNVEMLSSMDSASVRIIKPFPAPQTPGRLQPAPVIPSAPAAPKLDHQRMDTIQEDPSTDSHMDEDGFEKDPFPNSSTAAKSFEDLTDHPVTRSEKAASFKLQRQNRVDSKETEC

As to `CNC(=O)[C@@H](NC(=O)[C@H](CC(C)C)[C@H](O)C(=O)NO)C(C)(C)C`, on Tumor necrosis factor, the pIC50 was 6.00.

`CNC(=O)[C@@H](NC(=O)[C@H](c1ccc(C)cc1)[C@H](CO)C(=O)NO)C(C)(C)C`: the pKi in test [1] is 8.42; in test [2] it was 9.52; at Stromelysin-1, 7.82; on Interstitial collagenase it was 8.70. Further, the pIC50 against Tumor necrosis factor is 6.57.

Take `CNC(=O)[C@@H](NC(=O)[C@H](CC(C)C)[C@H](CO)C(=O)NO)C(C)(C)C`: the pKi in test [1] is 7.89; in test [2] it was 9.52; on Stromelysin-1, 8.01; at Interstitial collagenase, 9.22. The pIC50 at Tumor necrosis factor is 5.79.

For the compound `CNC(=O)[C@@H](NC(=O)[C@H](c1ccc(OC)cc1)[C@H](CO)C(=O)NO)C(C)(C)C`, the pKi was 9.22 in test [1], 9.30 in test [2], 9.05 on Stromelysin-1 and 8.96 at Interstitial collagenase. At Tumor necrosis factor, this compound showed a pIC50 of 7.32.

`CNC(=O)[C@@H](NC(=O)[C@H](c1ccccc1)[C@H](CO)C(=O)NO)C(C)(C)C`: the pKi was 8.31 in test [1], 8.32 in test [2], 7.88 on Stromelysin-1 and 8.46 on Interstitial collagenase. Also, the pIC50 on Tumor necrosis factor was 6.03.
